These results are taken from US20210395327A1, “Growth Hormone-Releasing Hormone Antagonists and Uses Thereof” (United States Government As Represented By The Department …, priority 2019, published 2021).

Assay [1] concerns HCC1806 breast cancer cells. The assay is described as follows: In vitro cell viability, HCC1806. Format: cell-based, human. The settings on record: for In vitro relative inhibitory potency in comparison to MIA-602, HCC-1806: Table 3B, 5 μM for 72 H, MIA-602 = 1. The essentials: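 Cells grown to ~60% confluence, serum-starved 24 h in 0.5% FBS medium, then exposed to compounds at 5 μM (some at 2 μM) or 0.1% DMSO vehicle for 72 h, in quintuplicate, medium changed every 48 h. Viability read by MTS-type CellTiter 96 AQueous assay; values are inhibitory potency relative to MIA602.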

The test system of assay [2] is SK-OV-3 ovarian cancer cells. The assay is described as follows: In vitro cell viability, SK-OV-3. Type of assay: cell-based, human. The settings on record: Table 3B; * at 2 μM for 72 H; MIA-602 = 1. The method, then:
(§1) The inhibitory effects of the various synthesized GHRH antagonists were tested in cell proliferation assays in various human cancer cell lines including stomach cancer (KATOIII, N87), colon cancer (HT-29), urothelial cancer (J82, RT4), pancreatic cancer (PANC-1, CFPAC-1), prostatic cancer (PC3), breast cancer (MX-1, HCC1806), ovarian cancer (SK-OV-3, OVCAR-3) and lung cancer (HCC827, H460).
(§2) Cell culture. Human cancer cell lines including pancreatic (PANC-1 and CFPAC-1), lung (HCC827 and H460), stomach (NCI-N87 and KATOIII), urothelial (J82, RT4), prostatic (PC3), breast (MX-1 and HCC 1806), colorectal (HT-29), and ovarian (SK-OV-3 and OVCAR-3) were obtained from the American Type Culture Collection (ATCC) and cultured at 37° C. in a humidified 95% air/5% CO2 atmosphere in the medium recommended by ATCC.
(§3) In vitro cell viability. Cell viability was analyzed as follows: cancer cells including pancreatic (PANC-1 and CFPAC-1), lung (HCC827 and H460), stomach (NCI-N87 and KATOIII), urothelial (J82, RT4), prostatic (PC3) and breast (MX-1 and HCC 1806), colorectal (HT-29) and ovarian (SK-OV-3 and OVCAR-3) were grown on 96 well plates to ˜60% confluence, the cells were starved for 24 h in culture medium containing 0.5% FBS. Cells were then treated with GHRH antagonists MIA602 AVR compounds at concentrations of 1, 2.5 or 5 μM, or vehicle (0.1% DMSO) in quintuplicates for 72 hours. The medium was replaced every 48 hours. Cell viability was measured using CellTiter 96 aqueous one solution kit (Promega). Inhibitory effects of tested AVR compounds in comparison to that of MIA602 are presented as inhibitory potency.
(§4) Inhibitory effects of selected AVR compounds in comparison to that of MIA602 are presented as inhibitory potency (e.g., percentage of inhibition). […] The cell lines tested including lung cancer HCC827 (FIG. 2A), pancreatic cancer CFPAC-1 (FIG. 2B), stomach cancer N87 (FIG. 2C), colon cancer HT-29 (FIG. 2D), breast cancers MX-1 and HCC1806 (FIGS. 2 E, F). […]

Assay [3] deals with OVCAR-3 ovarian cancer cells. The assay is described as follows: In vitro cell viability, OVCAR-3. The following applies: Table 3B; * at 2 μM for 72 H; MIA-602 = 1. Type of assay: cell-based, human. The method, then:
as §1, §2, §3, §4

The test system of assay [4] is pancreatic cancer PANC-1 xenograft. The experiment in a line: Xenograft tumor growth in nude mice, PANC-1. Type of assay: in vivo. The following applies: Table 4A, Pancreatic Ca PANC-1, 7 weeks; for % Inhibition: vs control. Here is the method: (§5) The peptides' activity was compared with GHRH antagonist MIA-602. All statistical analyzses were performed from comparing GHRA antagonists to non-treated tumor (control).
(§6) Peptides and chemicals. GHRH antagonists MIA-602 and AVR-GHRH antagonists (see Table 2 above) were synthesized by solid phase methods and purified by HPLC. The peptides were dissolved in DMSO and further diluted in 10% 1,2-propanediol. The final concentration of peptides was 50 µg/ml in 10% 1,2-propanediol containing 0.1% of DMSO.
(§7) Cell culture. Human cancer cell lines including pancreatic (PANC-1 and CFPAC-1), lung (HCC827 and H460), stomach (NCI-N87), prostate (PC3), brest (MX-1 and HCC-1806), colorectal (HT-29), and ovarian (SK-OV-3 and OVCAR-3) were obtained from the American Type Culture Collection (ATCC) and cultured at 37° C. in a humidified 95% air/5% CO2 atmosphere in the medium recommended by ATCC.
(§8) Xenograft models of human cancers in nude mice. Female athymic (NCr nu/nu) nude mice, 5- to 6-weeks-old, obtained from the Envigo labs (Tampa, Fla.), were housed in laminar airflow cabinets under pathogen-free conditions with a 12-h light/12-h dark schedule, and were fed autoclaved standard chow and water. To generate mice with xenografted tumors, tumor xenografts were initiated by subcutaneous (s.c.) injection of 107 human cancer cells into female nude mice. After about 4 weeks the resulting tumors were dissected and collected after removing necrosis tissues. The tumors were then cut into particles with size of 3 mm3 and transplanted s.c. by trocar needle into experimental animals. When tumors grew to the size of 50-60 mm3 (by volume), mice were randomized into groups and treated daily for 4-8 weeks by subcutaneous administration of 5 μg of GHRH antagonists MIA-602 or AVR-compounds (2-10 μg as indicated), or vehicle solutions (0.1% DMSO in 10% 1,2-propanediol) respectively. Tumor sizes were measured weekly.
(§9) Statistical analysis. One-way ANOVA followed by Bonferroni comparison were performed. Data are expressed as Mean±SEM. To determine statistical significance between animal groups, two-tailed Student's t-test was conducted. Differences were considered significant when p<0.05.
(§10) Results. […] FIG. 1A-N represents in vivo inhibition of tumor growth during the treatment with GHRH antagonist MIA-602 and selected AVR antagonists in nude mice xenografted with various human tumors including pancreatic cancer PANC-1 (FIG. 1A) and CFPAC-1 (FIG. 1I); lung cancer HCC827 (FIGS. 1B, C) and H460 (FIG. 1H); stomach cancer N87 (FIGS. 1D-F); colon cancer HT-29 (FIG. 1G); breast cancer MX-1 and HCC-1806 (FIGS. 1J, K); ovarian cancer SK-OV-3 and OVACAR-3 (FIGS. 1 L, M) and prostate cancer PC3 (FIG. 1N). See also Table 5.

For assay [5], the system named is lung cancer H460 xenograft. The assay is described as follows: Xenograft tumor growth in nude mice, H460. Type of assay: in vivo. The settings on record: Table 4H, Lung Ca H460, 4 weeks, 5 μg/day s.c.; for % Inhibition: vs control. Here is the method: as §5, §6, §7, §8, §9, §10
Assay [6] has as its system breast cancer MX-1 xenograft. The assay is described as follows: Xenograft tumor growth in nude mice, MX-1. Type of assay: in vivo. The settings on record: Table 4J, Breast Ca MX-1, 4 weeks, 5 μg/day s.c.; for % Inhibition: vs control. Here is the method: as §5, §6, §7, §8, §9, §10
Assay [7] deals with ovarian cancer OVCAR-3 xenograft. The experiment in a line: Xenograft tumor growth in nude mice, OVCAR-3. The following applies: Table 4M, Ovarian Ca OVCAR-3, 9 weeks; for % Inhibition: vs control. Type of assay: in vivo. Here is the method: as §5, §6, §7, §8, §9, §10

Non-standard residues stand in square brackets, D forms with d. Residues, ends and D or L forms follow the SMILES beside them. *: point of attachment. Phenylacetyl(2,3,4,5,6-F5) = O=C(Cc1c(F)c(F)c(F)c(F)c1F)*; Phe(F5) = N[C@@H](Cc1c(F)c(F)c(F)c(F)c1F)C(=O)O; hArg = N=C(N)NCCCC[C@H](N)C(=O)O; 12Ado = NCCCCCCCCCCCC(=O)O; Nle = CCCC[C@H](N)C(=O)O; Orn = NCCC[C@H](N)C(=O)O; Abu = CC[C@H](N)C(=O)O; PhAc = O=C(Cc1ccccc1)*

As a reminder, the % Inhibition is the change of the read-out against control, counted positive when it falls. Turning to `CCCC[C@H](NC(=O)[C@@H](NC(=O)[C@H](CC(=O)O)NC(=O)[C@H](CCC(N)=O)NC(=O)[C@H](CC(C)C)NC(=O)[C@H](CC(C)C)NC(=O)[C@H](CCCN)NC(=O)[C@H](Cc1c[nH]cn1)NC(=O)[C@H](C)NC(=O)[C@H](CO)NC(=O)[C@H](CC(C)C)NC(=O)[C@H](CCC(N)=O)NC(=O)[C@H](CC)NC(=O)[C@H](CC(C)C)NC(=O)[C@@H](NC(=O)[C@H](CCCN)NC(=O)[C@H](Cc1c[nH]cn1)NC(=O)[C@H](Cc1ccc(OC)cc1)NC(=O)[C@H](CCCCNC(=N)N)NC(=O)[C@H](C)NC(=O)[C@@H](NC(=O)[C@H](Cc1c(F)c(F)c(F)c(F)c1F)NC(=O)[C@@H](NC(=O)[C@H](C)NC(=O)[C@H](CC(=O)O)NC(=O)[C@@H](CCCNC(=N)N)NC(=O)[C@H](Cc1ccc(O)cc1)NC(=O)CCCCCCCCCCCNC(=O)Cc1ccccc1)[C@@H](C)CC)[C@@H](C)O)C(C)C)[C@@H](C)CC)C(=O)N[C@H](CCCNC(=N)N)C(=O)N[C@@H](CCCCNC(=N)N)C(N)=O` [MIA-602, PhAC-Ada, Tyr D-Arg, Asp, Ala, Ile, 5FPhe, Thr, Ala, Har, Tyr(Me), His, Orn, Val, Leu, Abu, Gin, Leu, Ser, Ala, His, Om, Leu, Leu, Gin, Asp, Ile; Nle, D-Arg, Har NH2, reference compound] ({PhAc-12Ado}-Y[dR]DAI[Phe(F5)]TA[hArg]Y(Me)H[Orn]VL[Abu]QLSAH[Orn]LLQDI[Nle][dR][hArg]-NH2), in assay [1], the “In vitro relative inhibitory potency in comparison to MIA-602, HCC-1806” value amounted to 1. For the same compound, the “relative inhibitory potency in comparison to MIA-602, Breast IICC1806” value in assay [1] (antagonist 5 μM for 72 h, cell proliferation assay, MIA602 = 1) is 1. Besides, in assay [2], the “In vitro relative inhibitory potency in comparison to MIA-602, SKOV-3” value is 1. In assay [3], the “In vitro relative inhibitory potency in comparison to MIA-602, OVCAR-3” value worked out at 1. Besides, the results for the “Tumor Growth %” value in assay [4] (5 μg/day s.c.), in assay [5] and in assay [6] were 1572.7%, 1602.7% and 677.3%, respectively. Besides, the “% Inhibition” value in assay [4] (5 μg/day s.c.) stood at 41.1%; in assay [5], 52.6%; in assay [6] it was 39.2%; in assay [7] (5 μg/day s.c.) it was 44.4%. For the same compound, the “Tumor Size (mm3)” value in assay [7] (5 μg/day s.c.) worked out at 267.2 mm3.
On to `CCCC[C@H](NC(=O)[C@@H](NC(=O)[C@H](CC(=O)O)NC(=O)[C@H](CCC(N)=O)NC(=O)[C@H](CC(C)C)NC(=O)[C@H](CC(C)C)NC(=O)[C@H](CCCCN)NC(=O)[C@H](CCCNC(=N)N)NC(=O)[C@H](C)NC(=O)[C@H](CO)NC(=O)[C@H](CC(C)C)NC(=O)[C@H](CCC(N)=O)NC(=O)[C@H](CC)NC(=O)[C@H](CC(C)C)NC(=O)[C@@H](NC(=O)[C@H](CCCCN)NC(=O)[C@H](CCCNC(=N)N)NC(=O)[C@H](Cc1ccc(OC)cc1)NC(=O)[C@H](CCCCNC(=N)N)NC(=O)[C@H](C)NC(=O)[C@@H](NC(=O)[C@H](Cc1c(F)c(F)c(F)c(F)c1F)NC(=O)[C@@H](NC(=O)[C@H](C)NC(=O)[C@H](CC(=O)O)NC(=O)[C@@H](CCCNC(=N)N)NC(=O)[C@H](Cc1ccc(O)cc1)NC(=O)CCCCCCCCCCCNC(=O)Cc1c(F)c(F)c(F)c(F)c1F)[C@@H](C)CC)[C@@H](C)O)C(C)C)[C@@H](C)CC)C(=O)N[C@H](CCCNC(=N)N)C(=O)N[C@@H](CCCCNC(=N)N)C(=O)NCCCCCCCCCCCC(N)=O` [AVR-352, 5FPhAC-Ada-Tyr-DArg-Asp-Ala-Ile-5FPhe-Thr-Ala-Har-Tyr(Me)-Arg-Lys-Val-Leu-Abu-Gln-Leu-Ser-Ala-Arg-Lys-Leu-Leu-Gln-Asp-Ile-Nle-DArg-Har-Ada-NH2] ({Phenylacetyl(2,3,4,5,6-F5)-12Ado}-Y[dR]DAI[Phe(F5)]TA[hArg]Y(Me)RKVL[Abu]QLSARKLLQDI[Nle][dR][hArg][12Ado]-NH2), for which the “In vitro relative inhibitory potency in comparison to MIA-602, HCC-1806” value in assay [1] stood at 4.85. The “In vitro relative inhibitory potency in comparison to MIA-602, SKOV-3” value in assay [2] is reported as 1.15*. The “In vitro relative inhibitory potency in comparison to MIA-602, OVCAR-3” value in assay [3] is given as 1.68*. In addition, the “Tumor Growth %” value is recorded as 2073.0% in assay [4] (2.5 μg/day s.c.), 1456.9% in assay [4] (5 μg/day s.c.), 1738.3% in assay [5] and 673.2% in assay [6]. In addition, the “% Inhibition” value in assay [4] (2.5 μg/day s.c.) was 22.4%; in assay [4] (5 μg/day s.c.) it was 45.4%; in assay [5], 48.6%; in assay [6], 39.5%; in assay [7] (2.5 μg/day s.c.), 35.9%; in assay [7] (5 μg/day s.c.) it was 58.4%. Moreover, the entries for the “Tumor Size (mm3)” value in assay [7] (2.5 μg/day s.c.) and in assay [7] (5 μg/day s.c.) were 307.7 mm3 and 199.9 mm3, respectively.
